According to patent US11926628B2 (Gilead Sciences, Inc., priority 2021, dated 2024):

Assays:
human DGKα = human DGKα (Homo sapiens (Human), UniProt P23743); assay: DGKα Biochemical Activity Assay (ADP-Glo); conditions: recombinant DGKα 1 nM, 100 μM ATP, 18:1 DAG/POPS/octylglucoside micelles, 1 hour at 25° C.; geometric mean; read-out: HTBS DGKa 1X ATP KM IC50
Outline: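 Recombinant DGKα (1 nM final) was preincubated with compound for 15 min, then reacted for 1 h at 25 °C with 100 μM ATP and octylglucoside micelles of 0.85 mM 18:1 DAG and 6.75 mM POPS in pH 7.2 MOPS with 5 mM MgCl2. ADP formed was read by ADP-Glo luminescence. IC50 came from four-parameter fits normalized to DMSO and 50 μM CU3, and values were geometric means.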

[1] = system: Jurkat NFκB-luciferase cells; assay: Jurkat NFκB-Luciferase Assay; assay type: cell-based; conditions: Homo sapiens; Jurkat NFκB-luciferase cells activated with anti-CD3 antibody (OKT3), 2.5 hrs at 37° C.; geometric mean; read-out: DGK NFKb Luciferase EC50
Outline: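 Jurkat NFκB-luciferase reporter cells stimulated on plate-bound anti-CD3 (5 ug/ml coating) with compound, 2.5 hrs at 37° C then 30 min at 25° C; luminescence read with One-Glo Ex. Normalized to DMSO (basal) and 1 micromolar compound (maximum) controls; EC50 from four-parameter fit, geometric mean across experiments.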

Sequence of human DGKα (P23743 whole entry): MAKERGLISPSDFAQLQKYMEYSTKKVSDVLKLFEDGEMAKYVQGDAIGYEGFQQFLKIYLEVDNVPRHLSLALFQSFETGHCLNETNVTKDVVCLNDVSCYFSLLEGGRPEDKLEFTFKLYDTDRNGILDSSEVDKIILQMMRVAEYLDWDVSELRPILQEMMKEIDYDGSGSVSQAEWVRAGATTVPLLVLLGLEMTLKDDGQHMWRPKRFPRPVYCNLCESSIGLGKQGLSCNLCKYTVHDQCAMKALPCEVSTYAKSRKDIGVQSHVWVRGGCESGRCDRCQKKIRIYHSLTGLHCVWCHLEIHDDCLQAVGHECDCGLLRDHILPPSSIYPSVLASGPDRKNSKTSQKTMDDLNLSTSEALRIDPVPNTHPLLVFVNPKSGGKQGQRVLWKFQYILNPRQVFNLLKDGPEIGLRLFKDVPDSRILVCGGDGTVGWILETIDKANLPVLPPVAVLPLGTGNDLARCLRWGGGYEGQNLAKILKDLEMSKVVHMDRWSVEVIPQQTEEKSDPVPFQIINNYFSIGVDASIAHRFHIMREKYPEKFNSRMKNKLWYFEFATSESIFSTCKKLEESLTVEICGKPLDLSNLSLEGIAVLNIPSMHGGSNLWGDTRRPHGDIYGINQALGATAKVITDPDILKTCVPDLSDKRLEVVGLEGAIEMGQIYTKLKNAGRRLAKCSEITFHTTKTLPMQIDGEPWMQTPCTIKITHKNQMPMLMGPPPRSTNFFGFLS

IC50 (human DGKα) [nM]	EC50 [1] [nM]	SMILES
1.38	0.051	Cc1nnc2nc(N3CCCc4c(C#CC5(C)CC5)cccc43)c3ccc(C(F)(F)F)nc3n12 [Example 143, 9-methyl-5-(5-((1-methylcyclopropyl)ethynyl)-3,4-dihydroquinolin-1(2H)-yl)-2-(trifluoromethyl)pyrido[3,2-e][1,2,4]triazolo[4,3-a]pyrimidine]
5.08	4.67	Cc1nnc2nc(N3CCCc4c(C#CC(C)(C)C#N)cccc43)c3cc(F)cnc3n12 [Example 144, 4-(1-(3-fluoro-9-methylpyrido[3,2-e][1,2,4]triazolo[4,3-a]pyrimidin-5-yl)-1,2,3,4-tetrahydroquinolin-5-yl)-2,2-dimethylbut-3-ynenitrile]
59.6	8.73	Cc1nnc2nc(N3CCCc4c(C#CC(C)(C)O)cccc43)c3ccc(C(F)(F)F)nc3n12 [Example 145, 2-methyl-4-(1-(9-methyl-2-(trifluoromethyl)pyrido[3,2-e][1,2,4]triazolo[4,3-a]pyrimidin-5-yl)-1,2,3,4-tetrahydroquinolin-5-yl)but-3-yn-2-ol]
7.78	18.1	CCC(O)C#Cc1cccc2c1CCCN2c1nc2nncn2c2ncc(F)cc12 (centres unmarked) [Example 146, 1-(1-(3-fluoropyrido[3,2-e][1,2,4]triazolo[4,3-a]pyrimidin-5-yl)-1,2,3,4-tetrahydroquinolin-5-yl)pent-1-yn-3-ol]
4.38	4.24	CC(C)(C#N)C#Cc1cccc2c1CCCN2c1nc2nncn2c2ncc(F)cc12 [Example 147, 4-(1-(3-fluoropyrido[3,2-e][1,2,4]triazolo[4,3-a]pyrimidin-5-yl)-1,2,3,4-tetrahydroquinolin-5-yl)-2,2-dimethylbut-3-ynenitrile]
13.7	20.7	CCC(C)(O)C#Cc1cccc2c1CCCN2c1nc2nncn2c2ncc(F)cc12 (centres unmarked) [Example 148, 1-(1-(3-fluoropyrido[3,2-e][1,2,4]triazolo[4,3-a]pyrimidin-5-yl)-1,2,3,4-tetrahydroquinolin-5-yl)-3-methylpent-1-yn-3-ol]
8.71	12	CC(C)(O)C#Cc1cccc2c1CCCN2c1nc2nncn2c2ncc(F)cc12 [Example 149, 4-(1-(3-fluoropyrido[3,2-e][1,2,4]triazolo[4,3-a]pyrimidin-5-yl)-1,2,3,4-tetrahydroquinolin-5-yl)-2-methylbut-3-yn-2-ol]
8.44	2.18	Fc1cnc2c(c1)c(N1CCCc3c(C#CC4(C(F)(F)F)CC4)cccc31)nc1nncn12 [Example 150, 11-fluoro-8-[5-[2-[1-(trifluoromethyl)cyclopropyl]ethynyl]-3,4-dihydro-2H-quinolin-1-yl]-2,4,5,7,13-pentazatricyclo[7.4.0.02,6]trideca-1(13),3,5,7,9,11-hexaene]
51.4	3.82	CCC1(C#Cc2cccc(N(C)c3nc4nncn4c4ncc(F)cc34)c2)CC1 [Example 151, N-[3-[2-(1-ethylcyclopropyl)ethynyl]phenyl]-11-fluoro-N-methyl-2,4,5,7,13-pentazatricyclo[7.4.0.02,6]trideca-1(13),3,5,7,9,11-hexaen-8-amine]
32	3.18	CN(c1cccc(C#CC(C)(C)C)c1)c1nc2nncn2c2ncc(F)cc12 [Example 152]
29.4	45.2	CN(c1cccc(C#CC(C)(C)O)c1)c1nc2nncn2c2ncc(F)cc12 [Example 153]
20.7	3.54	CN(c1cccc(C#CC2(C(F)(F)F)CC2)c1)c1nc2nncn2c2ncc(F)cc12 [Example 154, 3-fluoro-N-methyl-N-(3-((1-(trifluoromethyl)cyclopropyl)ethynyl)phenyl)pyrido[3,2-e][1,2,4]triazolo[4,3-a]pyrimidin-5-amine]
17.2	0.707	CN(c1cccc(-c2ccc(C3CC3)cc2)c1)c1nc2nncn2c2ncc(F)cc12 [Example 155, N-(4′-cyclopropyl-[1,1′-biphenyl]-3-yl)-3-fluoro-N-methylpyrido[3,2-e][1,2,4]triazolo[4,3-a]pyrimidin-5-amine]
10.7	2.69	CN(c1cc(F)cc(C#CC2(C(F)(F)F)CC2)c1)c1nc2nncn2c2ncc(F)cc12 [Example 156, 3-fluoro-N-(3-fluoro-5-((1-(trifluoromethyl)cyclopropyl)ethynyl)phenyl)-N-methylpyrido[3,2-e][1,2,4]triazolo[4,3-a]pyrimidin-5-amine]

The remaining lines, values behind:

SMILES	IC50 (human DGKα) [nM]	EC50 [1] [nM]
COc1ccc2c(N(C)c3cccc(-c4ccc(C5CC5)cc4)c3)nc3nncn3c2n1 [Example 129, N-(4′-cyclopropyl-[1,1′-biphenyl]-3-yl)-2-methoxy-N-methylpyrido[3,2-e][1,2,4]triazolo[4,3-a]pyrimidin-5-amine]	28.9	0.754
COc1ccc2c(N(C)c3cccc(-c4ccc(C(F)F)cc4)c3)nc3nncn3c2n1 [Example 130, N-(4′-(difluoromethyl)-[1,1′-biphenyl]-3-yl)-2-methoxy-N-methylpyrido[3,2-e][1,2,4]triazolo[4,3-a]pyrimidin-5-amine]	55	2.52
CN(c1cccc(-c2ccc(C(F)F)cc2)c1)c1nc2nncn2c2nc(N)ccc12 [Example 131, N5-(4′-(difluoromethyl)-[1,1′-biphenyl]-3-yl)-N5-methylpyrido[3,2-e][1,2,4]triazolo[4,3-a]pyrimidine-2,5-diamine]	11.5	7.69
CN(c1cccc(Cl)c1)c1nc2nncn2c2nc(N)ccc12 [Example 132, N5-(3-chlorophenyl)-N5-methylpyrido[3,2-e][1,2,4]triazolo[4,3-a]pyrimidine-2,5-diamine]	388	91.4
COc1ccc2c(N(C)c3cccc(-c4ccc(C(F)F)cc4)c3)nc3nnc(C)n3c2n1 [Example 133, N-(4′-(difluoromethyl)-[1,1′-biphenyl]-3-yl)-2-methoxy-N,9-dimethylpyrido[3,2-e][1,2,4]triazolo[4,3-a]pyrimidin-5-amine]	52.8	1.98
Cc1nnc2nc(N(C)c3cccc(-c4ccc(C(F)F)cc4)c3)c3ccc(N)nc3n12 [Example 134, N5-(4′-(difluoromethyl)-[1,1′-biphenyl]-3-yl)-N5,9-dimethylpyrido[3,2-e][1,2,4]triazolo[4,3-a]pyrimidine-2,5-diamine]	12.3	8.3
Cc1nnc2nc(N3CCCc4c(C#Cc5cnn(C)c5)cccc43)c3cc(F)cnc3n12 [Example 135]	4.03	3.1
Cc1nnc2nc(N3CCOCc4c(C#CC(C)(C)C#N)cccc43)c3cc(F)cnc3n12 [Example 136]	3.35	10.4
Cc1nnc2nc(N3CCOCc4c(C#Cc5cnn(C)c5)cccc43)c3ccc(C(F)(F)F)nc3n12 [Example 137, 6-((1-methyl-1H-pyrazol-4-yl)ethynyl)-1-(9-methyl-2-(trifluoromethyl)pyrido[3,2-e][1,2,4]triazolo[4,3-a]pyrimidin-5-yl)-1,2,3,5-tetrahydrobenzo[e][1,4]oxazepane]	8.38	5.67
Cc1nnc2nc(N3CCOCc4c(C#CC(C)(C)C#N)cccc43)c3ccc(C(F)(F)F)nc3n12 [Example 138, 2,2-dimethyl-4-(1-(9-methyl-2 (trifluoromethyl)pyrido[3,2-e][1,2,4]triazolo[4,3-a]pyrimidin-5-yl)-1,2,3,5-tetrahydrobenzo[e][1,4]oxazepin-6-yl)but-3-ynenitrile]	6.56	4.35
Cc1nnc2nc(N3CCCc4c(C#Cc5cnn(C)c5)cccc43)c3ccc(C(F)(F)F)nc3n12 [Example 139, 9-methyl-5-(5-((1-methyl-1H-pyrazol-4-yl)ethynyl)-3,4-dihydroquinolin-1(2H)-yl)-2-(trifluoromethyl)pyrido[3,2-e][1,2,4]triazolo[4,3-a]pyrimidine]	47.8	6.04
Cc1nnc2nc(N3CCOCc4c(C#CC5(C)CC5)cccc43)c3ccc(C(F)(F)F)nc3n12 [Example 140, 1-(9-methyl-2-(trifluoromethyl)pyrido[3,2-e][1,2,4]triazolo[4,3-a]pyrimidin-5-yl)-6-((1-methylcyclopropyl)ethynyl)-1,2,3,5-tetrahydrobenzo[e][1,4]oxazepine]	11.5	2.37
Cc1nnc2nc(N3CCOCc4c(C#CC(C)(C)O)cccc43)c3ccc(C(F)(F)F)nc3n12 [Example 141, 2-methyl-4-[1-[3-methyl-12-(trifluoromethyl)-2,4,5,7,13-pentazatricyclo[7.4.0.02,6]trideca-1(13),3,5,7,9,11-hexaen-8-yl]-3,5-dihydro-2H-4,1-benzoxazepin-6-yl]but-3-yn-2-ol]	20.1	55.8
Cc1nnc2nc(N3CCCc4c(C#CC5(C(F)(F)F)CC5)cccc43)c3ccc(C(F)(F)F)nc3n12 [Example 142, 9-methyl-2-(trifluoromethyl)-5-(5-((1-(trifluoromethyl)cyclopropyl)ethynyl)-3,4-dihydroquinolin-1(2H)-yl)pyrido[3,2-e][1,2,4]triazolo[4,3-a]pyrimidine]	712	0.464
